According to the supplement of paper PMC13380429:

What was measured:
A549-ACE2 [1] = experiment: drug-induced phospholipidosis relative to tamoxifen; higher = more phospholipidosis
U2OS [2] = experiment: drug sensitivity score (DSS) for viability; higher = more toxic; extreme values may be limits of the assay; conditions: 72 h
HepG2 [3] = experiment: as above; conditions: 72 h
Caco-2 [4] = experiment: as above; conditions: 72 h
Vero E6 [5] = experiment: as above; conditions: 72 h
Calu-3 [6] = experiment: as above; conditions: 72 h
[7] = system: A549-ACE2 infected with SARS-CoV-2; experiment: cell count relative to DMSO; higher = less toxic; conditions: 24 h
U2OS [8] = experiment: relative viability EC50 (midpoint between 100% and the lowest measured viability); higher = less toxic; conditions: 72 h
HepG2 [9] = experiment: as above; conditions: 72 h
Caco-2 [10] = experiment: as above; conditions: 72 h
Vero E6 [11] = experiment: as above; conditions: 72 h
Calu-3 [12] = experiment: as above; conditions: 72 h
[13] = system: A549-ACE2 infected with SARS-CoV-2; experiment: SARS-CoV-2 infection rate relative to DMSO; higher = more infection; conditions: 24 h
U2OS [14] = experiment: cell viability relative to DMSO; higher = less toxic; conditions: 72 h
HepG2 [15] = experiment: as above; conditions: 72 h
Caco-2 [16] = experiment: as above; conditions: 72 h
Vero E6 [17] = experiment: as above; conditions: 72 h
Calu-3 [18] = experiment: as above; conditions: 72 h
[19] = system: A549-ACE2 infected with SARS-CoV-2; experiment: morphology score (similarity to uninfected cells); higher = more like uninfected cells; conditions: 24 h
A549-ACE2 [20] = experiment: phospholipidosis EC50; higher = less potent phospholipidosis inducer

COc1ccc2nc3c(c(N)c2c1)CCCC3 [7-methoxytacrine]
drug-induced phospholipidosis [%], A549-ACE2 [1]
Conditions | 0.3 µM | 0.833333 µM | 3.33333 µM | 6.66667 µM | 10 µM | 30 µM
24 h | 0.14 | -0.76 | 0.16 | 7.44 | 14.2 | 83.8
48 h | 2.14 | -1.42 | 1.92 | 4.91 | 9.37 | 110
72 h | 5.21 | -1.72 | 1.16 | 5.48 | 11.9 | 129

Conditions | drug sensitivity score | relative viability EC50 [µM]
Caco-2 [4] | 0 | –
Caco-2 [10] | – | > 10
Calu-3 [6] | 0 | –
Calu-3 [12] | – | > 10
HepG2 [3] | 2.6 | –
HepG2 [9] | – | > 10
U2OS [2] | 0 | –
U2OS [8] | – | > 10
Vero E6 [5] | 0 | –
Vero E6 [11] | – | > 10

Conditions | SARS-CoV-2 infection rate, [13] [%] | cell count, [7] [%] | cell viability, Caco-2 [16] [%] | cell viability, Calu-3 [18] [%] | cell viability, HepG2 [15] [%] | cell viability, U2OS [14] [%] | cell viability, Vero E6 [17] [%] | morphology score, [19]
1 nM | – | – | 96 | 93 | 100 | 103 | 102 | –
10 nM | – | – | 98.2 | 102 | 91.4 | 102 | 99.8 | –
100 nM | – | – | 96.2 | 91.1 | 92.5 | 98.5 | 95.6 | –
0.3 µM | 102 | 103 | – | – | – | – | – | -0.02
1000 nM | – | – | 93.8 | 97.7 | 79.3 | 100 | 95.4 | –
3 µM | 81 | 109 | – | – | – | – | – | 0.53
10 µM | 34 | 115 | – | – | – | – | – | 0.82
10000 nM | – | – | 92.2 | 95.5 | 83.5 | 95.3 | 98.9 | –
30 µM | 17 | 111 | – | – | – | – | – | 0.76

Cc1cccc(/C=N/Nc2cc(N3CCOCC3)n3nc(-c4ccncc4)cc3n2)c1 [APY0201]
drug-induced phospholipidosis [%], A549-ACE2 [1]
Conditions | 0.3 µM | 0.833333 µM | 3.33333 µM | 6.66667 µM | 10 µM | 30 µM
24 h | 100 | 98.4 | 102 | 100 | 85.1 | 97.8
48 h | 105 | 98.3 | 47.8 | 39.8 | – | 61.8
72 h | 141 | 95 | 33.5 | 42.7 | – | –

Conditions | SARS-CoV-2 infection rate [%] | cell count [%] | cell viability [%] | morphology score | phospholipidosis EC50 [µM]
A549-ACE2 [20], 24 h | – | – | – | – | 0.3
A549-ACE2 [20], 48 h | – | – | – | – | 1.08
A549-ACE2 [20], 72 h | – | – | – | – | 0.851
Caco-2 [16], 1 nM | – | – | 95.5 | – | –
Caco-2 [16], 10 nM | – | – | 101 | – | –
Caco-2 [16], 100 nM | – | – | 92.8 | – | –
Caco-2 [16], 1000 nM | – | – | 97 | – | –
Caco-2 [16], 10000 nM | – | – | 80.1 | – | –
Calu-3 [18], 1 nM | – | – | 111 | – | –
Calu-3 [18], 10 nM | – | – | 101 | – | –
Calu-3 [18], 100 nM | – | – | 87.8 | – | –
Calu-3 [18], 1000 nM | – | – | 85.8 | – | –
Calu-3 [18], 10000 nM | – | – | 98.1 | – | –
HepG2 [15], 1 nM | – | – | 99.8 | – | –
HepG2 [15], 10 nM | – | – | 98.9 | – | –
HepG2 [15], 100 nM | – | – | 82.8 | – | –
HepG2 [15], 1000 nM | – | – | 31.3 | – | –
HepG2 [15], 10000 nM | – | – | 22.3 | – | –
U2OS [14], 1 nM | – | – | 94.2 | – | –
U2OS [14], 10 nM | – | – | 97.7 | – | –
U2OS [14], 100 nM | – | – | 93.9 | – | –
U2OS [14], 1000 nM | – | – | 91.2 | – | –
U2OS [14], 10000 nM | – | – | 77.6 | – | –
Vero E6 [17], 1 nM | – | – | 110 | – | –
Vero E6 [17], 10 nM | – | – | 104 | – | –
Vero E6 [17], 100 nM | – | – | 96.7 | – | –
Vero E6 [17], 1000 nM | – | – | 45.6 | – | –
Vero E6 [17], 10000 nM | – | – | 38.2 | – | –
[7], 0.3 µM | – | 113 | – | – | –
[7], 3 µM | – | 98 | – | – | –
[7], 10 µM | – | 94 | – | – | –
[7], 30 µM | – | 91 | – | – | –
[13], 0.3 µM | 41 | – | – | – | –
[13], 3 µM | 72 | – | – | – | –
[13], 10 µM | 72 | – | – | – | –
[13], 30 µM | 65 | – | – | – | –
[19], 0.3 µM | – | – | – | 0.21 | –
[19], 3 µM | – | – | – | -0.06 | –
[19], 10 µM | – | – | – | -0.03 | –
[19], 30 µM | – | – | – | -0.04 | –

Conditions | drug sensitivity score | relative viability EC50 [µM]
Caco-2 [4] | 1 | –
Caco-2 [10] | – | > 10
Calu-3 [6] | 2 | –
Calu-3 [12] | – | > 10
HepG2 [3] | 14.8 | –
HepG2 [9] | – | 0.24
U2OS [2] | 1.2 | –
U2OS [8] | – | > 10
Vero E6 [5] | 10.4 | –
Vero E6 [11] | – | 0.392
